The record followed here is ChEMBL document CHEMBL3301361, “Experimental in vitro DMPK and physicochemical data on a set of publicly disclosed compounds”.

The nature of this series: physchem. The conditions noted are these: octan-1-ol/water, pH 7.4, LogD7.4.

`C1=C(c2cc3ccccc3o2)C2CCN1CC2` showed a logD of 2.59.
With `CC(C)c1ncc(NC(=O)OCc2ccccc2)c(=O)n1CC(=O)NC(C(=O)C(F)(F)F)C(C)C` (stereo not drawn) the figure was 2.63; with `NC1CCc2cc(OC(=O)c3ccccc3)c(OC(=O)c3ccccc3)cc2C1` (stereo not drawn), 2.6; with `N#Cc1cc(S(=O)(=O)NCC(c2ccccc2)N2CCCCCC2)ccc1F` (stereo not drawn), 2.71.
For `Cc1cc2n[nH]c(=O)n2c2cc(-c3cccnc3)ccc12` the value was 2.72; for `CC1=C(C2=C(C)C(=O)c3c(cc(O)c(O)c3Cc3ccccc3)C2=O)C(=O)c2cc(O)c(O)c(Cc3ccccc3)c2C1=O`, 2.73; for `O=C(COCc1ccncc1)N1CCN(c2ccc(Cl)cc2F)CC1`, 2.55.
For `O=C(COCc1ccncc1)N1CCC(c2ccc(Cl)cc2)CC1` the value was 2.74; for `O=C(COCc1ccncc1)N1CCC(c2ccc(F)cc2Cl)CC1`, 2.7; for `O=C(COCc1ccncc1)N1CCC(c2ccc(Cl)cc2Cl)CC1`, 2.63.
The compound `COc1ccc(-c2cc(=O)c3ccccc3[nH]2)cc1` displayed a logD of 2.71.
With `COc1ccc(-c2cc(O)c3cc(Cl)ccc3n2)cc1` the figure was 2.7.
With `Cc1sc2ncnc(SCC(=O)N3CCN(C(=O)c4ccco4)CC3)c2c1C` the figure was 2.7; with `O=C1NC(c2ccc(Br)cc2)Nc2ccccc21` (stereo not drawn), 2.68; with `CSc1ncccc1C(=O)NCc1ccc(C)cc1`, 2.71.
With `CCOc1ccc(-c2cnc3n2CCC3)cc1` the figure was 2.65; with `CCN(CC)S(=O)(=O)c1ccc(NC(=O)C(C)(O)C(F)(F)F)cc1` (stereo not drawn), 2.63.
Take `CC[C@H](NC(=O)c1c([S+](C)[O-])c(-c2ccccc2)nc2cc(CN(C)C)ccc12)c1ccccc1` (stereo partly drawn): the logD was found to be 2.75.
`COc1cc2nnc(C(N)=O)c(Nc3cc(C)ccc3F)c2cc1N1CCN(C)CC1` had a logD of 2.57.
With `O=C(N[C@@H](c1ccccc1)[C@@H]1CCCCN1)c1cccc(C(F)(F)F)c1Cl` the figure was 2.61; with `COc1cc(F)ccc1-c1cncc(CNC2CCCCC2)c1`, 2.6.
`Oc1ccc(-c2nc3ccccc3nc2-c2ccc(O)cc2)cc1` yielded a logD of 2.7.
In turn, `COc1cc(-c2c(F)ccc3c(N)c(C(=O)NC4CC4)nnc23)c(OC)nn1` had a logD of 2.75.
In turn, `N#Cc1ccccc1Oc1ccc(C(=O)NCc2ccncc2)cc1` came in with a logD of 2.57.
For the compound `C=CCCCCCCCCC(=O)N[C@H]1CCC(=O)NC1=O`, the logD turned out to be 2.64.
In turn, `CCC(c1nc2ccsc2c(=O)n1Cc1ccccc1)N(CCCN)C(=O)c1ccc(C(C)C)cc1` (stereo not drawn) returned a logD of 2.72.
For `CCC(c1nc2ccsc2c(=O)n1Cc1ccccc1)N(CCCN)C(=O)c1ccc(C)nc1` (stereo not drawn) the value was 2.56.
With `COCCOc1ccc(C(=O)Nc2cc(NC(=O)c3cccc(N(C)C)c3)ccc2C)cc1` the figure was 2.74.
In turn, `COc1cc2ncnc(Nc3cc(NC(=O)c4ccnc(N5CCOCC5)c4)ccc3C)c2cc1OCCN1CCCC1` showed a logD of 2.7.
For `Cc1ccc(NC(=O)c2cccc(N(C)C)c2)cc1NC(=O)c1ccc(O)cc1` the value was 2.65; for `COc1ccc(NC(=O)c2ccc(-c3ccncc3)c(C)c2)cc1N1CCN(C)CC1`, 2.56; for `Clc1ccccc1-c1c[nH]nn1`, 2.68.
`Cc1ccc(C(=O)NC2CCN(c3cc(C(N)=O)cc(Cl)n3)CC2)[nH]1` yielded a logD of 2.64.
Regarding `Cc1ccc(-c2c[nH]nn2)cc1`, the logD was 2.58.
In turn, `CN[C@@H](C)C(=O)N[C@H](C(=O)N[C@H]1CCCN(CCCc2ccccc2)C1)C1CCCCC1` displayed a logD of 2.6.
For `CN[C@@H](C)C(=O)N[C@H](C(=O)N[C@H]1CCCN(CCc2cccc(F)c2)C1)C1CCCCC1` the value was 2.64.
For `CCN(C(=O)Cc1ccc(S(C)(=O)=O)cc1)C1CCN(CCC(c2ccccc2)c2ccc(C#N)cc2)CC1` (stereo not drawn) the value was 2.76.
For `O=C(NCc1ccccn1)c1ccc(Oc2ccccc2)cc1` the value was 2.7; for `O=C(Nc1ccc(Nc2ccc(NC(=O)c3ccccc3)c3c2C(=O)c2ccccc2C3=O)c2c1C(=O)c1ccccc1C2=O)c1ccccc1`, 2.63; for `O=C(Nc1cccc(Cl)c1)N1CCN(C[C@@H]2CCCN(C3CC3)C2)CC1`, 2.74.
The compound `CCN1CCO[C@@H](CN2CCN(C(=O)Nc3ccc(Cl)c(Cl)c3)CC2)C1` had a logD of 2.68.
Turning to `Cc1ccc(-c2ncc(C)n2C)cc1NC(=O)c1ccc(OCc2ccccn2)cc1`, the logD is 2.67.
Regarding `Cc1ccc(-c2cn(C)c(C)n2)cc1NC(=O)c1ccc(OCc2ccccn2)cc1`, the logD is 2.71.
For `Clc1ccccc1CNC[C@H]1CC[C@H](CNCc2ccccc2Cl)CC1` the value was 2.74.
With `CC(=O)Nc1cc2c(ccn2-c2cc(NC3CC3)n3ncc(C#N)c3n2)cc1C` the figure was 2.66.
On to `CC(=O)Nc1ccc2[nH]cc(-c3cc(NC4CC4)n4ncc(C#N)c4n3)c2c1`, for which the logD amounted to 2.65.
With `Cn1cncc1-c1c2c(=O)n(C)c(=O)n(CC3CC3)c2nn1Cc1ccnc2ccc(Cl)cc12` the figure was 2.69; with `Cc1cc(CNc2ncc(Cl)c(Nc3cc(C)[nH]n3)n2)on1`, 2.68.
`CCCSc1nc(NC[C@H]2CC[C@H](C(=O)O)CC2)ccc1C(=O)NC1CCCCC1` came in with a logD of 2.61.
`Cc1cc(S(=O)(=O)N2CCN(C)CC2)ccc1-c1cnc(N)c(C(=O)Nc2cccnc2)n1` gave a logD of 2.6.
With `COc1cc(N2CCN(C)CC2)c2[nH]c(C(=O)Nc3ccc(N4CCOCC4)cc3)cc(=O)c2c1` the figure was 2.7; with `CN1CCN(c2cc(F)cc3c(=O)cc(C(=O)Nc4ccc(N5CCOCC5)cc4)[nH]c23)CC1`, 2.7.
Compound `O=S(=O)(Nc1ncc(Cl)s1)c1cc(F)c(Oc2ccc(F)cc2-c2cn[nH]c2)cc1F` gave a logD of 2.7.
Turning to `Nc1n[nH]cc1-c1cc(C(F)(F)F)ccc1Oc1cc(F)c(S(=O)(=O)Nc2cscn2)cc1Cl`, the logD was found to be 2.65.
With `CC(C)(c1cc(N2CCOCC2)nc(-c2cccc3[nH]ccc23)n1)S(C)(=O)=O` the figure was 2.65; with `C[C@H](NC(=O)C1(N)CCN(c2ncnc3[nH]ccc23)CC1)c1ccc(Cl)cc1`, 2.67.
With `NC1(C(=O)NC(CCCN2CCOCC2)c2ccc(Cl)cc2)CCN(c2ncnc3[nH]ccc23)CC1` (stereo not drawn) the figure was 2.7.
`CC(NC(=O)C1(N)CCN(c2ncnc3[nH]ccc23)CC1)c1ccc(Cl)cc1` (stereo not drawn) had a log distribution coefficient (logD) of 2.7.
In turn, `COCCN(C)Cc1ccc(Nc2ncc3cc(-c4ccncc4)ccc3n2)cc1` returned a logD of 2.65.
For `COc1cc(-c2ccncc2)cc2cnc(Nc3ccc([C@@H](C)NC(C)=O)cc3)nc12` the value was 2.73; for `COc1ccc(-c2ccc3c(N4CCOC[C@@H]4C)nc(-n4ccnc4)nc3n2)cc1CO`, 2.6; for `O=C1C2=Nc3ccccc3CN2c2ccccc21`, 2.71.
With `Cn1c(N)nc(CCc2ccc3ccccc3c2)cc1=O`, the logD was determined as 2.7.
In the case of `Nc1ccc2ncnc(Nc3ccc(F)c(Cl)c3)c2c1`, the logD was 2.64.
With `NS(=O)(=O)c1ccc(Nc2nccc(Nc3c(Cl)ccc4c3OCO4)n2)cc1` the figure was 2.7; with `CC(C)C(NC(=O)Cn1c(-c2ccccc2)ccc(NS(=O)(=O)NCc2ccccc2)c1=O)C(=O)C(F)(F)F` (stereo not drawn), 2.57.
With `COC(=O)CCCCCCC(=O)Nc1ccc2c(c1)-c1ccccc1C(=O)C2=O` the figure was 2.6; with `CCOc1ccccc1-c1ccc2c(c1)C(=O)C(=O)c1ccccc1-2`, 2.67; with `C[C@@](O)(C(=O)Nc1ccc(C(=O)N2CCCCC2)cc1Cl)C(F)(F)F`, 2.62.
Regarding `O=C1O[C@@H](COc2ccon2)CN1c1ccc(C2=CCOCC2)c(F)c1`, the logD amounted to 2.61.
With `CC(C)N1CCN(C(=O)NCc2ccc(Cl)c(Cl)c2)CC1` the figure was 2.75.
With `COc1cc(N2CC[C@@H](N(C)C)C2)c2[nH]c(C(=O)Nc3ccc(N4CCOCC4)cc3)cc(=O)c2c1` the figure was 2.7; with `Clc1ccc2c(c1Nc1ncnc3cc(OCCN4CCCC4)cc(OC4CCOCC4)c13)OCO2`, 2.6; with `Cn1c(-c2ccncc2)cc2onc(-c3ccccc3)c2c1=O`, 2.61.
The compound `CCCCC(O)c1[nH]c2cc(C)c(C(=O)O)cc2c1CCc1ccccc1` (stereo not drawn) came in with a logD of 2.59.
With `COCCOc1cc2nccc(Nc3cc(O)c(Cl)cc3F)c2cc1OC` the figure was 2.64; with `CCCN(CCC)C(=O)c1cccc(C(=O)N[C@@H](Cc2ccccc2)[C@H](O)CNCc2cccc(OC)c2)c1`, 2.7; with `Cc1ccc(S(=O)(=O)c2ccccc2)cc1`, 2.74.
For `c1ccc(CNc2nc3ccccc3[nH]2)cc1` the value was 2.76; for `Cn1cc(S(C)(=O)=O)nc1-c1c2c(=O)n(C)c(=O)n(CC3CC3)c2nn1Cc1ccnc2ccc(Cl)cc12`, 2.64; for `CC[C@H](C)[C@@H](CO)NS(=O)(=O)c1ccc(Cl)s1`, 2.7.
In turn, `COc1cc2ncc(C(N)=O)c(Nc3ccc(F)cc3F)c2cc1NCCN1CCOCC1` came in with a logD of 2.68.
`O=C1C(=O)c2cccc([N+](=O)[O-])c2-c2ccccc21` displayed a logD of 2.6.
`CNC(=O)c1ccc(Nc2nccc(-c3cnc(C)n3C(C)C)n2)cc1` returned a logD of 2.69.
For `Cn1c(=O)c2c(-c3ccc(S(C)(=O)=O)o3)n(Cc3ccnc4ccc(Cl)cc34)nc2n(CC2CC2)c1=O` the value was 2.71; for `COC(=O)CCC(=O)Nc1ccc2c(c1)-c1ccccc1C(=O)C2=O`, 2.72; for `Cn1cc(-c2cccc(C[C@H](NC(=O)c3cc(C(C)(C)C)nn3C)C(=O)NCC#N)c2)cn1`, 2.6.
On to `Cc1cc(Oc2ccnc(Nc3ccc(N4CCOCC4)cc3)c2)c(-c2ccccn2)nc1C`, for which the logD came out at 2.59.
Consider `Nc1nonc1C(=NO)Nc1ccc(F)c(Cl)c1`, for which the logD stood at 2.7.
With `C=CCNC(=O)c1cc([N+](=O)[O-])cc2c(=O)[nH]c(Nc3ccc(Cl)c(Cl)c3)nc12` the figure was 2.7.
For `O=C1Nc2ccc(S(=O)(=O)N3CCC[C@H]3COc3ccccc3)cc2C1=O` the value was 2.7; for `CN1CC(=O)N2[C@H](c3ccc4c(c3)OCO4)c3[nH]c4ccccc4c3C[C@@H]2C1=O`, 2.6; for `COC(=O)c1c(C)[nH]c(C)c1C(=O)c1ccccc1Cl`, 2.7.
